Measurements as given in ChEMBL document CHEMBL4837198, “Design, synthesis and biological evaluation of 1H-indazole derivatives as novel ASK1 inhibitors” (Eur J Med Chem, 2021).
Activity calls are given as the source filed them. The rule behind the calls is not given here.

Experiments:
[1] = target: T1, Mitogen-activated protein kinase kinase kinase 5 (Homo sapiens, UniProt Q99683); assay: Inhibition of ASK1 in human HEK293 cells transfected with AP1 assessed as inhibition of AP1-induced firefly luciferase activity preincubated for 1 hr followed by PMA stimulation and measured after 6 hrs by luciferase reporter assay; type: cell-based
T1 sequence (Q99683 whole entry): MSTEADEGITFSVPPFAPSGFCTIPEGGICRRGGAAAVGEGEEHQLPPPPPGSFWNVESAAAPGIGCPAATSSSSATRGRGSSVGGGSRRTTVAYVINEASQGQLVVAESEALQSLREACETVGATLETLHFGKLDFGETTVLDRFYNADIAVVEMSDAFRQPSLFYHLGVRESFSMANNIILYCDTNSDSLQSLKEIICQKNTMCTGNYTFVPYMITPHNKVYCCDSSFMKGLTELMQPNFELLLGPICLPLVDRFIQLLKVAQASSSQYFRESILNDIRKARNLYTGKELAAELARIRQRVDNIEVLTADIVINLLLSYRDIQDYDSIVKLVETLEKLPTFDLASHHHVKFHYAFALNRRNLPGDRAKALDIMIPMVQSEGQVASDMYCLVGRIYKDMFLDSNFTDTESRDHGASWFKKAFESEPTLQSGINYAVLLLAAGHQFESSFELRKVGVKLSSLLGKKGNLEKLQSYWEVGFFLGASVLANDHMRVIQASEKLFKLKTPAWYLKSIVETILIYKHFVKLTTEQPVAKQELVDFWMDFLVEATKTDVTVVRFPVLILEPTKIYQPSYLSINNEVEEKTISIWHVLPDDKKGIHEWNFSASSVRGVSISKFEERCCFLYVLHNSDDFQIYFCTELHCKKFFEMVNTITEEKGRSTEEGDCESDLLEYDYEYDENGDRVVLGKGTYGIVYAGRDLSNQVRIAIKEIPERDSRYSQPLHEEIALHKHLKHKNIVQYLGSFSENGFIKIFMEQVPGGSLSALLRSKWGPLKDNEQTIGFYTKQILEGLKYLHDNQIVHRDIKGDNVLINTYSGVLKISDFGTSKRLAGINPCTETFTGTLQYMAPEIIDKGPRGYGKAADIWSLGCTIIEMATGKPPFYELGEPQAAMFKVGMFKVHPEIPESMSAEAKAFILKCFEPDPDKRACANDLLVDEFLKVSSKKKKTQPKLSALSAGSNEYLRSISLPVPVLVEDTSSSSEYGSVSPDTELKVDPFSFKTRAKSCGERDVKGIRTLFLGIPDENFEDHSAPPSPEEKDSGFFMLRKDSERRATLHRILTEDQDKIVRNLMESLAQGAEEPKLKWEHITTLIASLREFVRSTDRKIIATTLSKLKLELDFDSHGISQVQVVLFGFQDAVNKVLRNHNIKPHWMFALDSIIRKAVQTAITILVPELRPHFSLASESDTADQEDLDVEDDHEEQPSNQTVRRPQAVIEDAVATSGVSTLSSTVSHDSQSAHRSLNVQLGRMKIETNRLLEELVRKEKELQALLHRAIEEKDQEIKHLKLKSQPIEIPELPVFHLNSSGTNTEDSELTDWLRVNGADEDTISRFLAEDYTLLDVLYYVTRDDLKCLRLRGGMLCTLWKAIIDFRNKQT

[2] = target: T1, Mitogen-activated protein kinase kinase kinase 5; assay: Inhibition of human full length recombinant ASK1 using STK-Substrate-3 biotin as substrate in presence of ATP measured after 2 hrs by […] kinase assay
[3] = system: HT-29; assay: Antiapoptotic activity against in human HT-29 cells assessed as inhibition of TNFalpha-induced caspase 3 activity by Western blot analysis; type: functional, cell-based
[4] = system: HT-29; assay: Antiinflammatory activity in human HT-29 cells assessed as suppression of […]-stimulated p-ASK1 expression by Western blot analysis; type: functional, cell-based
[5] = system: HT-29; assay: Induction cell survival in TNFalpha-induced human HT-29 cells at 10 uM pretreated for 24 hrs followed by TNFalpha stimulation measured after 2 hrs by CCK8 assay; type: functional, cell-based
[6] = system: HT-29; assay: Cytotoxicity against human HT-29 cells assessed as cell survival at 25 uM incubated for 24 hrs by CCK8 assay; type: cell-based; settings: ht-29, 24 h
[7] = system: HT-29; assay: Antiapoptotic activity against in human HT-29 cells assessed as inhibition of TNFalpha-induced Bax/ Bcl2 ratio by Western blot analysis; type: functional, cell-based
[8] = system: HT-29; assay: Antiapoptotic activity against in human HT-29 cells assessed as inhibition of TNFalpha-induced upregulation of Bax expression by Western blot analysis; type: functional, cell-based
[9] = system: HT-29; assay: Antiinflammatory activity in human HT-29 cells assessed as suppression of […]-stimulated p-P38 expression by Western blot analysis; type: functional, cell-based
[10] = system: HT-29; assay: Antiinflammatory activity in human HT-29 cells assessed as suppression of […]-stimulated p-JNK expression by Western blot analysis; type: functional, cell-based
[11] = system: HT-29; assay: Antiapoptotic activity against in human HT-29 cells assessed as inhibition of TNFalpha-induced down regulation of Bcl2 expression by Western blot analysis; type: functional, cell-based

| IC50 [1] [nM] | IC50 [2] [nM] | SMILES | further results |
| --- | --- | --- | --- |
| 8880 | 37 | CC(C)n1cnnc1-c1ccc2[nH]nc(-c3cccc(-n4cnc(C5CC5)n4)c3)c2c1 | – |
| 7040 | 50 | c1cc(-c2n[nH]c3ccc(-c4nncn4C4CC4)cc23)cc(-n2cnc(C3CC3)c2)c1 | – |
| 9810 | 26.9 | COCn1cc(-c2cccc(-c3n[nH]c4ccc(-c5nncn5C(C)C)cc34)c2)cn1 | – |
| 11300 | 48.6 | COc1cc(-c2n[nH]c3ccc(-c4nncn4C(C)C)cc23)cc(-n2cnc(C3CC3)c2)c1 | – |
| – | 245 | COCCNC(=O)c1cccc(-c2n[nH]c3ccc(-c4nncn4C(C)C)cc23)c1 | – |
| – | 74.2 | CC(C)n1cnnc1-c1ccc2[nH]nc(-c3cccc(C(N)=O)c3)c2c1 | – |
| – | 271 | CC(C)n1cnnc1-c1ccc2[nH]nc(-c3cccc(C(=O)NC4CC4)c3)c2c1 | – |
| 7280 | 70 | c1cc(-c2n[nH]c3ccc(-c4nncn4C4CCC4)cc23)cc(-n2cnc(C3CC3)c2)c1 | – |
| – | 283 | CC(C)n1cnnc1-c1ccc2[nH]nc(-c3cccc(-c4cccnc4)c3)c2c1 | – |
| – | 75.1 | CC(C)n1cnnc1-c1ccc2[nH]nc(-c3cc(N4CCOCC4)cc(-n4cnc(C5CC5)c4)c3)c2c1 | – |
| – | 270 | COc1ccc(-n2cnc(C3CC3)c2)cc1-c1n[nH]c2ccc(-c3nncn3C(C)C)cc12 | – |
| 12100 | 50.1 | CC(C)n1cnnc1-c1ccc2[nH]nc(-c3cccc(-c4cnn(C5CCOCC5)c4)c3)c2c1 | – |
| – | 532 | O=C(Nc1cccc(-c2n[nH]c3ccc(-c4nnc[nH]4)cc23)c1)c1ccc(C(F)(F)F)cc1 | – |
| 11600 | 31.8 | CC(C)n1cnnc1-c1ccc2[nH]nc(-c3ccc(N4CCOCC4)c(-n4cnc(C5CC5)c4)c3)c2c1 | – |
| 8330 | 63.6 | CC(C)n1cnnc1-c1ccc2[nH]nc(-c3cccc(-c4cnn(C)c4)c3)c2c1 | – |
| 8730 | 56.9 | Cc1ccc(-c2n[nH]c3ccc(-c4nncn4C(C)C)cc23)cc1-n1cnc(C2CC2)c1 | – |
| – | 144 | CC(C)n1cnnc1-c1ccc2[nH]nc(-c3cccc(C(=O)Nc4cnn(C)c4)c3)c2c1 | – |
| – | 855 | CC(C)n1cnnc1-c1ccc2[nH]nc(-c3cccc(-c4ccnn4C)c3)c2c1 | – |
| – | – | Cc1cc(F)c(C(=O)Nc2cccc(-c3nncn3C(C)C)n2)cc1-n1cnc(C2CC2)c1 [SELONSERTIB] | Activity [3]: Active; Activity [4]: Active; Activity [5]: Active; Activity [6]: Non-Toxic; Activity [7]: Active; Activity [8]: Active; Activity [9]: Active; Activity [10]: Active; Activity [11]: Active |
| 5500 | 54.1 | c1cc(-c2n[nH]c3ccc(-c4nncn4C4CCCC4)cc23)cc(-n2cnc(C3CC3)c2)c1 | – |
| – | 277 | CCOC(C)n1cc(-c2cncc(-c3n[nH]c4ccc(-c5nncn5C(C)C)cc34)c2)cn1 (stereo unspecified) | – |
| 4460 | 29.9 | CCOC(C)n1cc(-c2cccc(-c3n[nH]c4ccc(-c5nncn5C(C)C)cc34)c2)cn1 (stereo unspecified) | Activity [3]: Active; Activity [4]: Active; Activity [5]: Active; Activity [6]: Non-Toxic; Activity [7]: Active; Activity [8]: Active; Activity [9]: Active; Activity [10]: Active; Activity [11]: Active |
| – | 197 | CC(C)n1cnnc1-c1ccc2[nH]nc(-c3cccc(NC(=O)c4ccc(C(F)(F)F)cc4)c3)c2c1 | – |
| – | 733 | CC(C)n1cnnc1-c1ccc2[nH]nc(-c3cccc(S(C)(=O)=O)c3)c2c1 | – |
| – | 275 | c1cc(-c2n[nH]c3ccc(-c4cn[nH]c4)cc23)cc(-n2cnc(C3CC3)c2)c1 | – |
| – | 62.2 | CC(C)n1cnnc1-c1ccc2[nH]nc(-c3cccc(-n4cnc(C5CC5)c4)c3)c2c1 | – |
| – | 19.8 | CCS(=O)(=O)Nc1cccc(-c2n[nH]c3ccc(-c4nncn4C(C)C)cc23)c1 | – |
| – | 243 | c1cc(-c2n[nH]c3ccc(-c4nncn4C4CCCCC4)cc23)cc(-n2cnc(C3CC3)c2)c1 | – |
